Assay results published in PubChem BioAssay AID248 (DTP/NCI, 2004).
“And” between values parts separate entries of the source, which are not always exact repeats. Equal values may be shown once. Inconclusive results and toxic doses are left out. No stated cut-off is given here; in the data, active means T/C of 150% or more; inactive means T/C below 125%.

Test system: L1210 leukemia ip in BDF1 mice, survival T/C
Test: NCI In Vivo Anticancer Drug Screen. Data for tumor model L1210 Leukemia (intraperitoneal) in B6D2F1 (BDF1) mice
Details: endpoint: mean survival time, higher = longer survival
In short: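 Ratio derived from survival: compound-dosed mice over vehicle-dosed mice, all bearing a transplantable tumor.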

[1] = dose: 100.0 mg/kg/injection, schedule: Q01DX001 (ip), vehicle: saline
[2] = dose: 200.0 mg/kg/injection, schedule: Q01DX001 (ip), vehicle: saline
[3] = dose: 400.0 mg/kg/injection, schedule: Q01DX001 (ip), vehicle: saline
[4] = dose: 100.0 mg/kg/injection, schedule: Q04DX003 (ip), vehicle: Klucel (hydroxypropylcellulose) (HPC)
[5] = dose: 100.0 mg/kg/injection, schedule: Q01DX009 (ip), vehicle: saline with Tween-80
[6] = dose: 100.0 mg/kg/injection, schedule: Q04DX003 (ip), vehicle: saline
[7] = dose: 200.0 mg/kg/injection, schedule: Q01DX009 (ip), vehicle: saline with Tween-80
[8] = dose: 200.0 mg/kg/injection, schedule: Q04DX003 (ip), vehicle: saline
[9] = dose: 400.0 mg/kg/injection, schedule: Q04DX003 (ip), vehicle: saline
[10] = dose: 100.0 mg/kg/injection, schedule: Q01DX009 (ip), vehicle: Klucel (hydroxypropylcellulose) (HPC)
[11] = dose: 100.0 mg/kg/injection, schedule: Q04DX002 (ip), vehicle: Klucel (hydroxypropylcellulose) (HPC)
[12] = dose: 200.0 mg/kg/injection, schedule: Q04DX002 (ip), vehicle: Klucel (hydroxypropylcellulose) (HPC)
[13] = dose: 400.0 mg/kg/injection, schedule: Q04DX002 (ip), vehicle: Klucel (hydroxypropylcellulose) (HPC)
[14] = dose: 100.0 mg/kg/injection, schedule: Q04DX003 (ip), vehicle: saline with Tween-80
[15] = dose: 200.0 mg/kg/injection, schedule: Q04DX003 (ip), vehicle: saline with Tween-80
[16] = dose: 400.0 mg/kg/injection, schedule: Q04DX003 (ip), vehicle: saline with Tween-80
[17] = dose: 25.0 mg/kg/injection, schedule: Q01DX009 (ip), vehicle: Klucel (hydroxypropylcellulose) (HPC)
[18] = dose: 50.0 mg/kg/injection, schedule: Q01DX009 (ip), vehicle: Klucel (hydroxypropylcellulose) (HPC)
[19] = dose: 100.0 mg/kg/injection, schedule: Q01DX001 (ip), vehicle: Klucel (hydroxypropylcellulose) (HPC)

Measured: T/C

CC(C)(C)C([NH-])=O.CC(C)(C)C([NH-])=O.[Cl][Pt+2][Cl]
inactive: dose: 6.25 mg/kg/injection, schedule: Q01DX009 (ip), vehicle: saline 86 % of control | dose: 12.5 mg/kg/injection, schedule: Q01DX009 (ip), vehicle: saline 94 % of control | dose: 12.5 mg/kg/injection, schedule: Q04DX003 (ip), vehicle: saline 116 % of control | dose: 25.0 mg/kg/injection, schedule: Q01DX009 (ip), vehicle: saline 101 % of control | dose: 25.0 mg/kg/injection, schedule: Q04DX003 (ip), vehicle: saline 102 % of control | dose: 50.0 mg/kg/injection, schedule: Q04DX003 (ip), vehicle: saline 109 % of control

NC(=O)C(=O)NO
inactive: [1] 97 % of control | [2] 106 % of control | [3] 105 % of control

OCC1(CO)CCCC2(COC3(CCCCC3)OC2)C1
inactive: [4] 98 % of control | dose: 200.0 mg/kg/injection, schedule: Q04DX003 (ip), vehicle: Klucel (hydroxypropylcellulose) (HPC) 94 % of control | dose: 400.0 mg/kg/injection, schedule: Q04DX003 (ip), vehicle: Klucel (hydroxypropylcellulose) (HPC) 94 % of control

O=[N+]([O-])c1ccc(-c2ccccc2)cc1
inactive: [1] 102 % of control | [2] 105 % of control | [3] 105 % of control

COc1ccc(/C(C#N)=C2C=C(Cl)/C(=N/O)C=C/2Cl)cc1
inactive: [1] 91 % of control | [5] 93 % of control | [6] 91 % of control | [2] 95 % of control | [7] 98 % of control | [8] 87 % of control | [3] 96 % of control | [9] 86 % of control

CCOC(=O)C1NC(=O)N(c2ccccc2)C1=O (stereo unspecified)
inactive: [6] 103 % of control | [8] 108 % of control | [9] 104 % of control

CCOC(=O)C1=NN(c2ccccc2)C(=O)C1N=Nc1ccc(S(=O)(=O)Nc2nnc(C)s2)cc1 (stereo unspecified)
inactive: [1] 110 % of control | [2] 105 % of control | [3] 98 % of control

O=C(CCc1ccccc1)NC(=S)Nc1cc(C(F)(F)F)ccc1Cl
inactive: [10] 94 % of control | dose: 200.0 mg/kg/injection, schedule: Q01DX009 (ip), vehicle: Klucel (hydroxypropylcellulose) (HPC) 90 % of control | dose: 400.0 mg/kg/injection, schedule: Q01DX009 (ip), vehicle: Klucel (hydroxypropylcellulose) (HPC) 87 % of control

Cc1ccc(S(=O)(=O)N/N=C/C=C/C=N/NS(=O)(=O)c2ccc(C)cc2)cc1
inactive: [11] 97 % of control | [12] 103 % of control | [13] 94 % of control

O=C(Cc1ccc(-c2ccccc2)cc1)c1ccccc1
inactive: dose: 100.0 mg/kg/injection, schedule: Q01DX001 (ip), vehicle: saline with Tween-80 94 % of control | dose: 200.0 mg/kg/injection, schedule: Q01DX001 (ip), vehicle: saline with Tween-80 93 % of control | dose: 400.0 mg/kg/injection, schedule: Q01DX001 (ip), vehicle: saline with Tween-80 91 % of control

Nc1ccc(S(=O)(=O)S(=O)(=O)c2ccc(N)cc2)cc1
inactive: [14] 93 % of control | [15] 86 % of control | [16] 91 % of control

Clc1ccc([As](c2ccc(Cl)cc2)c2ccc(Cl)cc2)cc1
inactive: [14] 100 % of control | [15] 90 % of control | [16] 101 % of control

CCCCCCCCCCCCCCCCCCNC(=S)NCCCCCCCCCCCCCCCC
inactive: dose: 55.0 mg/kg/injection, schedule: Q01DX Z (ip), vehicle: methylcellulose (MC) 123 % of control | dose: 83.0 mg/kg/injection, schedule: Q01DX Z (ip), vehicle: methylcellulose (MC) 106 % of control | dose: 125.0 mg/kg/injection, schedule: Q01DX Z (ip), vehicle: methylcellulose (MC) 104 % of control

Cc1n[n+]([O-])c(C)cc1Cl
inactive: [11] 104 % of control | [12] 104 % of control | [13] 119 % of control

CSC1OC(C(NC(=O)N(C)N=O)C(C)O)C(O)C(O)C1O (stereo unspecified)
inactive: [6] 105 % of control | [8] 118 % of control

O=C(O)CC1CCCCC1CC(=O)O (stereo unspecified)
inactive: dose: 25.0 mg/kg/injection, schedule: Q04DX002 (ip), vehicle: Klucel (hydroxypropylcellulose) (HPC) 101 % of control | dose: 50.0 mg/kg/injection, schedule: Q04DX002 (ip), vehicle: Klucel (hydroxypropylcellulose) (HPC) 98 % of control | [11] 92 % of control | [12] 95 % of control and 97 % of control | [13] 107 % of control

O=C(/C=C/c1ccccc1)CC(O)(C(F)(F)F)C(F)(F)F
inactive: dose: 100.0 mg/kg/injection, schedule: Q04DX003 (sc), vehicle: olive oil, sesame oil, peanut oil 113 % of control | dose: 200.0 mg/kg/injection, schedule: Q04DX003 (sc), vehicle: olive oil, sesame oil, peanut oil 113 % of control | dose: 400.0 mg/kg/injection, schedule: Q04DX003 (sc), vehicle: olive oil, sesame oil, peanut oil 108 % of control

NC(=O)C(c1ccccc1)N1CCCCC1 (stereo unspecified)
inactive: [17] 87 % of control | dose: 25.0 mg/kg/injection, schedule: Q04DX003 (ip), vehicle: Klucel (hydroxypropylcellulose) (HPC) 96 % of control | [18] 96 % of control | dose: 50.0 mg/kg/injection, schedule: Q04DX003 (ip), vehicle: Klucel (hydroxypropylcellulose) (HPC) 100 % of control | [10] 97 % of control | [4] 92 % of control and 90 % of control

O=C1OCC2Cc3cc4c(cc3C(c3ccc5c(c3)OCO5)=C12)OCO4 (stereo unspecified)
inactive: [1] 98 % of control | [2] 109 % of control | [3] 95 % of control

Cc1ccccc1C[As](C)(=O)O
inactive: [19] 98 % of control | dose: 200.0 mg/kg/injection, schedule: Q01DX001 (ip), vehicle: Klucel (hydroxypropylcellulose) (HPC) 118 % of control

Cc1nc(N)[nH]c(=O)c1NC(=O)CBr
inactive: dose: 50.0 mg/kg/injection, schedule: Q01DX001 (ip), vehicle: Klucel (hydroxypropylcellulose) (HPC) 100 % of control | [19] 104 % of control

CS(=O)(=O)OCCN(CCOS(C)(=O)=O)c1ccc(C=Nc2ccc(-c3csc(-c4ccc(Br)cc4)n3)cc2)cc1
inactive: [17] 124 % of control | [18] 114 % of control

C/C(=N/N)c1ccc(Br)cc1
inactive: dose: 3.7 mg/kg/injection, schedule: Q01DX009 (ip), vehicle: saline 107 % of control | dose: 5.0 mg/kg/injection, schedule: Q01DX001 (ip), vehicle: saline 94 % of control | dose: 7.5 mg/kg/injection, schedule: Q01DX009 (ip), vehicle: saline 119 % of control | dose: 10.0 mg/kg/injection, schedule: Q01DX001 (ip), vehicle: saline 97 % of control | dose: 20.0 mg/kg/injection, schedule: Q01DX001 (ip), vehicle: saline 113 % of control | dose: 25.0 mg/kg/injection, schedule: Q04DX003 (ip), vehicle: saline with Tween-80 105 % of control | dose: 40.0 mg/kg/injection, schedule: Q01DX001 (ip), vehicle: saline 122 % of control | dose: 50.0 mg/kg/injection, schedule: Q04DX003 (ip), vehicle: saline with Tween-80 110 % of control | dose: 80.0 mg/kg/injection, schedule: Q01DX001 (ip), vehicle: saline 105 % of control | [14] 93 % of control

[O-][n+]1onc2c(-c3ccccc3)nnc(-c3ccccc3)c21
inactive: [14] 108 % of control | [15] 110 % of control | [16] 111 % of control

CCCP(CCC)N(CC)CC
inactive: [6] 107 % of control | [8] 101 % of control | [9] 104 % of control

O=C(NC(Cc1ccccc1)C(=O)Oc1cc(Cl)c(Cl)cc1Cl)OCc1ccccc1 (stereo unspecified)
inactive: dose: 100.0 mg/kg/injection, schedule: Q01DX001 (ip), vehicle: other 91 % of control | dose: 200.0 mg/kg/injection, schedule: Q01DX001 (ip), vehicle: other 91 % of control | dose: 400.0 mg/kg/injection, schedule: Q01DX001 (ip), vehicle: other 97 % of control

COc1cc(OC)c(OC)cc1OC
inactive: [5] 95 % of control | [7] 97 % of control
